Measured values from publication PMC8636460, “Pharmacological and Biophysical Characteristics of Picrotoxin-Resistant, δSubunit-Containing GABAA Receptors” (Frontiers in Synaptic Neuroscience, 2021).

Legend:
[1] = target: T1, α4β2δ GABAAR (human α4, rat β2, rat δ with N-terminal FLAG) (Rattus norvegicus (beta2, delta); Homo sapiens (alpha4), UniProt P18506+P48169+P63138, P18506:T285Y); test: whole-cell patch clamp in transfected N2a cells, agonist concentration response, Hill fit; format: cell-based
T1 construct: gene GABRA4; free full subunits transiently transfected (cDNA α:β:δ 1:1:2) in mouse Neuro-2a cells
T1 sequence (P48169 36-554): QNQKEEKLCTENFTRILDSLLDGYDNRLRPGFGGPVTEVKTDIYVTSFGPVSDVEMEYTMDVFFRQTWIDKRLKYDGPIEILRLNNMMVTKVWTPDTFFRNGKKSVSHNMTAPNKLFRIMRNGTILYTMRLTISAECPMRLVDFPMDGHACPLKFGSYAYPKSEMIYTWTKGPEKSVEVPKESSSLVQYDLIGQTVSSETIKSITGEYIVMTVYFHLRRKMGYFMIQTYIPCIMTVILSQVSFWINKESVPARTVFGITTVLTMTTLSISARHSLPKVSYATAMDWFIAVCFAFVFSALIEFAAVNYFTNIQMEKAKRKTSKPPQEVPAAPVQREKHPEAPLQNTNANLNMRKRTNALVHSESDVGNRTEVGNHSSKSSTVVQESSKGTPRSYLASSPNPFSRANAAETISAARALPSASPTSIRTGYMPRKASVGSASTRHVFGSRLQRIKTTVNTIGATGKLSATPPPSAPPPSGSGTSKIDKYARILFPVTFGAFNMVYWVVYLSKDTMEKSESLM
T1 sequence (P63138 26-474): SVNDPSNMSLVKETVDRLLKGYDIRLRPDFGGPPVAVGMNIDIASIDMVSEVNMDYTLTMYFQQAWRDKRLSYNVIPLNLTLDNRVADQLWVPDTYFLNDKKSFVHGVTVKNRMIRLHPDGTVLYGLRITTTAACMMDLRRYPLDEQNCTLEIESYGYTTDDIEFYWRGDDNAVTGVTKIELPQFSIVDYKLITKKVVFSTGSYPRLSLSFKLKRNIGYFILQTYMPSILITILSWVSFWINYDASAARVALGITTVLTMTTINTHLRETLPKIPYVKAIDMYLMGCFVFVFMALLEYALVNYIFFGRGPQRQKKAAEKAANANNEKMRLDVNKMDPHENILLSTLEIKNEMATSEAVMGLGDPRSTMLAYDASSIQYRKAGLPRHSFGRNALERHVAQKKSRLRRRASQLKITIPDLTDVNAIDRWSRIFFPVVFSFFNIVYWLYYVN

[2] = target: T2, α4β2δ GABAAR (human α4, rat β2, rat δ with N-terminal FLAG) (Rattus norvegicus (beta2, delta); Homo sapiens (alpha4), UniProt P18506+P48169+P63138); test: as above; format: cell-based
T2 construct: gene GABRA4; free full subunits transiently transfected (cDNA α:β:δ 1:1:2) in mouse Neuro-2a cells
T2 sequence (P63138 26-474): as above
T2 sequence (P48169 36-554): as the sequence (P48169 36-554) above
T2 sequence (P18506 25-449): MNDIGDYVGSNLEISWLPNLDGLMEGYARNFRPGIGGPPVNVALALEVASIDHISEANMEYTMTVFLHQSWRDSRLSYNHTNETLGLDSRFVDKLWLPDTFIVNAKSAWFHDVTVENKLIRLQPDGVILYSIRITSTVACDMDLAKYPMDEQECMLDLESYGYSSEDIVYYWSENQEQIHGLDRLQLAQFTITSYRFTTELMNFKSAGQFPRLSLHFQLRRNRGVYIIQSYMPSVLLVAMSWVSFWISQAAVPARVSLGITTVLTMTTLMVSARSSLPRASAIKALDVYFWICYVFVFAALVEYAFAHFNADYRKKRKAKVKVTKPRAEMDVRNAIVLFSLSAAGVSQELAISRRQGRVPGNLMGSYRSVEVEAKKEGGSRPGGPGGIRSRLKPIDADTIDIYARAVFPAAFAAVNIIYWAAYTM

## Oc1noc2c1CCNC2 [THIP, 4,5,6,7-tetrahydroisoxazolo[5,4-c]pyridin-3-ol]
[1]
  EC50: 16.7 µM
[2]
  EC50: 38.7 µM
